Our source for the ED50 and IC50 values is patent US4618622A, “Sulfonates of hydroxycoumarins” (priority 1982, dated 1986).

Structures are written as SMILES.

The first assay concerns reserpine-induced hypothermia. The assay is described as follows: Antidepressant action: inhibition of reserpine-induced hypothermia (reserpine test). Type of assay: in vivo, mouse (male, Swiss strain). The conditions noted are these: Mus musculus, po, 2 h, read-out: Antidepressant action (mouse) ED50. How it is done: The test substances are administered orally, 60 minutes before the reserpine.
Usually ED50 stands for the dose at which the effect has come halfway, by size or by number of responders. In the case of `Cc1cc(=O)oc2cc(OS(=O)(=O)c3ccc(Cl)cc3)ccc12` [Example 40, 7-Hydroxy-4-methylcoumarin 4'-chlorobenzenesulfonate], the ED50 amounted to 8.7 mg/kg.

The same assay, now with this note: oral administration, 60 minutes before reserpine 2.15 mg/kg s.c.; mouse; temperature 2 hours after; read-out: Antidepressant action (mouse) ED50.
For `Cc1c(C)c2ccc(OS(C)(=O)=O)cc2oc1=O` [Example 2, 7-Hydroxy-3,4-dimethylcoumarin methanesulfonate], the ED50 was 5.9 mg/kg.
Same read-out and setting: then `Cc1c(C)c2ccc(OS(=O)(=O)c3ccc4ccccc4c3)cc2oc1=O` [Example 4, 7-Hydroxy-3,4-dimethylcoumarin naphthalene-2'-sulfonate], with 4 mg/kg; and `Cc1c(C)c2ccc(OS(=O)(=O)c3ccc(Cl)cc3)cc2oc1=O` [Example 9, 7-Hydroxy-3,4-dimethylcoumarin 4'-chlorobenzenesulfonate], with 6.1 mg/kg; and `Cc1c(C)c2ccc(OS(=O)(=O)c3ccc(Br)cc3)cc2oc1=O` [Example 11, 7-Hydroxy-3,4-dimethylcoumarin 4'-bromobenzenesulfonate], with 2.5 mg/kg.
On to `Cc1c(C)c2ccc(OS(=O)(=O)c3ccc(F)cc3)cc2oc1=O` [Example 14, 7-Hydroxy-3,4-dimethylcoumarin 4'-fluorobenzenesulfonate], for which the ED50 stood at 1.4 mg/kg.
In the case of `Cc1c(C)c2ccc(OS(=O)(=O)c3ccc(C#N)cc3)cc2oc1=O` [Example 18, 7-Hydroxy-3,4-dimethylcoumarin 4'-cyanobenzenesulfonate], the ED50 is 3.6 mg/kg.
Still for that read-out and setting: then `CCCS(=O)(=O)Oc1ccc2c(C)c(C)c(=O)oc2c1` [Example 22, 7-Hydroxy-3,4-dimethylcoumarin propanesulfonate], with 1.4 mg/kg; and `Cc1c(C)c2ccc(OS(=O)(=O)C(C)C)cc2oc1=O` [Example 23, 7-Hydroxy-3,4-dimethylcoumarin isopropanesulfonate], with 3.1 mg/kg.
Consider `Cc1c(C)c2ccc(OS(=O)(=O)C(F)(F)F)cc2oc1=O` [Example 24, 7-Hydroxy-3,4-dimethylcoumarin trifluoromethanesulfonate], for which the ED50 was determined as 3.7 mg/kg.
On the same count and under the same terms, the result for `CCCCS(=O)(=O)Oc1ccc2c(C)c(C)c(=O)oc2c1` [Example 26, 7-Hydroxy-3,4-dimethylcoumarin butanesulfonate] reads 1.8 mg/kg; that for `Cc1cc2ccc(OS(=O)(=O)c3ccc(Cl)cc3)cc2oc1=O` [Example 30, 7-Hydroxy-3-methylcoumarin 4'-chlorobenzenesulfonate], 9 mg/kg.
As to `CCCCCS(=O)(=O)Oc1ccc2c(C)c(C)c(=O)oc2c1` [Example 38, 7-Hydroxy-3,4-dimethylcoumarin pentanesulfonate], the ED50 was 1.4 mg/kg.
In the case of `CCS(=O)(=O)Oc1ccc2c(C)c(C)c(=O)oc2c1` [Example 39, 7-Hydroxy-3,4-dimethylcoumarin ethanesulfonate], the ED50 came to 1.7 mg/kg.
Still for that read-out and setting: the result for `Cc1cc(=O)oc2cc(OS(=O)(=O)c3ccccc3)ccc12` [Example 41, 7-Hydroxy-4-methylcoumarin benzenesulfonate] reads 29.7 mg/kg; that for `CNS(=O)(=O)Oc1ccc2c(C)c(C)c(=O)oc2c1` [Example 43, 7-Hydroxy-3,4-dimethylcoumarin N-methylamidosulfonate], 1.9 mg/kg.
Regarding `Cc1c(C)c2ccc(OS(=O)(=O)CCCCl)cc2oc1=O` [Example 55, 7-Hydroxy-3,4-dimethylcoumarin 3'-chloropropanesulfonate], the ED50 came out at 1.3 mg/kg.
Regarding `Cc1c(C)c2ccc(OS(=O)(=O)CCl)cc2oc1=O` [Example 56, 7-Hydroxy-3,4-dimethylcoumarin chloromethanesulfonate], the ED50 was found to be 3.4 mg/kg.
For `Cc1c(C)c2ccc(OS(=O)(=O)c3cccc([N+](=O)[O-])c3)cc2oc1=O` [Example 57, 7-Hydroxy-3,4-dimethylcoumarin 3'-nitrobenzenesulfonate], the ED50 was 1.5 mg/kg.

A further assay concerns the target T1, Monoaminoxidase A (Rattus norvegicus, UniProt P21396).
T1 sequence (P21396 1-526): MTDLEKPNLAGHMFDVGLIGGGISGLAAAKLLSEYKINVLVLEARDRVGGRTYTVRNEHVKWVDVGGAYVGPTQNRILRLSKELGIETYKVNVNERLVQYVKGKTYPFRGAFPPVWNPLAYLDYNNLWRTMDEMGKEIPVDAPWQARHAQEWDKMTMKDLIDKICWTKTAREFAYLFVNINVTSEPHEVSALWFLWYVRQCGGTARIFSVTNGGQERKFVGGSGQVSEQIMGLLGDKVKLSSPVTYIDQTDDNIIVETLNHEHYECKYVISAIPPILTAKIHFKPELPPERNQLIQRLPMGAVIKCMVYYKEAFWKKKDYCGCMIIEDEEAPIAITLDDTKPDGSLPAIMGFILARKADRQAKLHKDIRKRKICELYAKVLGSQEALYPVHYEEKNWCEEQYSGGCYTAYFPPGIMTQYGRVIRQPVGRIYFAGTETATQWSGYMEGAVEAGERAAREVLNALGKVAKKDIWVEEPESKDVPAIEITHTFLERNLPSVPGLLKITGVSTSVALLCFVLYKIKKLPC
Put plainly: biochemical. The conditions noted are these: monoaminoxidase A, rat brain homogenate, 14C-tryptamine 0.4 μmol/liter, 37° C., 20 minutes; read-out: Monoaminoxidase inhibition IC50. As for the experimental part:
Monoaminoxidase A is determined in dilute rat brain homogenate to which
1. various concentrations of the test substances and
2. ^14 C-tryptamine in a concentration of 0.4 μmol/liter are added. This mixture is incubated at 37° C. for 20 minutes, after which the reaction is terminated by means of aqueous 0.1N HCl, and the products are extracted with toluene scintillator (PPO+POPOP in toluene) and then determined. The blank value is determined in similar mixtures for an incubation time of t=0 minutes.
The mean inhibitory concentration (IC50) is calculated from the inhibitory values determined, in comparison with the control, at the various inhibitor concentrations, by means of a linear regression after logit-log transformation.
The IC50 is the concentration at which inhibition is half-maximal. On to `Cc1c(C)c2ccc(OS(=O)(=O)c3cccc4ccccc34)cc2oc1=O` [Example 3, 7-Hydroxy-3,4-dimethylcoumarin naphthalene-1'-sulfonate], for which the IC50 worked out at 76 nM.
As to `Cc1c(C)c2ccc(OS(=O)(=O)c3ccccc3[N+](=O)[O-])cc2oc1=O` [Example 6, 7-Hydroxy-3,4-dimethylcoumarin 2'-nitrobenzenesulfonate], the IC50 was 110 nM.
On to `Cc1c(C)c2ccc(OS(=O)(=O)c3ccc(OC(F)(F)C(F)F)cc3)cc2oc1=O` [Example 8, 7-Hydroxy-3,4-dimethylcoumarin 4'-(α,α,β,β-tetrafluoroethoxy)-benzenesulfonate], for which the IC50 is 160 nM.
Turning to `Cc1cc(C)c(S(=O)(=O)Oc2ccc3c(C)c(C)c(=O)oc3c2)c(C)c1` [Example 12, 7-Hydroxy-3,4-dimethylcoumarin 2',4',6'-trimethylbenzenesulfonate], the IC50 came out at 51 nM.
Still for that read-out and setting: the result for `Cc1c(C)c2ccc(OS(=O)(=O)c3cc(Cl)ccc3Cl)cc2oc1=O` [Example 13, 7-Hydroxy-3,4-dimethylcoumarin 2',5'-dichlorobenzenesulfonate] reads 27 nM.
On the same count and under the same terms, then `CC(=O)Nc1ccc(S(=O)(=O)Oc2ccc3c(C)c(C)c(=O)oc3c2)cc1` [Example 15, 7-Hydroxy-3,4-dimethylcoumarin 4'-acetylaminobenzenesulfonate], with 620 nM; and `Cc1cc2ccc(OS(=O)(=O)c3ccc(Br)cc3)cc2oc1=O` [Example 19, 7-Hydroxy-3-methylcoumarin 4'-bromobenzenesulfonate], with 9.8 nM.
As to `Cc1cc2ccc(OS(=O)(=O)c3ccccc3)cc2oc1=O` [Example 20, 7-Hydroxy-3-methylcoumarin benzenesulfonate], the IC50 stood at 67 nM.
On the same count and under the same terms, then `O=c1oc2cc(OS(=O)(=O)c3ccccc3)ccc2c2c1CCCC2` [Example 21, 7-Hydroxy-3,4-tetramethylenecoumarin benzenesulfonate], with 550 nM; and `CCCS(=O)(=O)Oc1ccc2c(C)c(C)c(=O)oc2c1` [Example 22, 7-Hydroxy-3,4-dimethylcoumarin propanesulfonate], with 9.6 nM.
For `Cc1c(C)c2ccc(OS(=O)(=O)C(C)C)cc2oc1=O` [Example 23, 7-Hydroxy-3,4-dimethylcoumarin isopropanesulfonate], the IC50 stood at 3.7 nM.
Take `Cc1c(C)c2ccc(OS(=O)(=O)C(F)(F)F)cc2oc1=O` [Example 24, 7-Hydroxy-3,4-dimethylcoumarin trifluoromethanesulfonate]: the IC50 turned out to be 75 nM.
Still for that read-out and setting: then `Cc1c(C)c2ccc(OS(=O)(=O)Cc3ccccc3)cc2oc1=O` [Example 25, 7-Hydroxy-3,4-dimethylcoumarin phenylmethanesulfonate], with 77 nM.
Same read-out and setting: the result for `CCCCS(=O)(=O)Oc1ccc2c(C)c(C)c(=O)oc2c1` [Example 26, 7-Hydroxy-3,4-dimethylcoumarin butanesulfonate] reads 7.3 nM; that for `CCCCCCCCS(=O)(=O)Oc1ccc2c(C)c(C)c(=O)oc2c1` [Example 27, 7-Hydroxy-3,4-dimethylcoumarin octanesulfonate], 34 nM.
Same read-out and setting: the result for `O=c1oc2cc(OS(=O)(=O)c3ccc(Br)cc3)ccc2c2c1CCCC2` [Example 28, 7-Hydroxy-3,4-tetramethylenecoumarin 4'-bromobenzenesulfonate] reads 290 nM; that for `O=c1oc2cc(OS(=O)(=O)c3ccc(Cl)cc3)ccc2c2c1CCCC2` [Example 29, 7-Hydroxy-3,4-tetramethylenecoumarin 4'-chlorobenzenesulfonate], 110 nM.
`Cc1cc2ccc(OS(=O)(=O)c3ccc(Cl)cc3)cc2oc1=O` [Example 30, 7-Hydroxy-3-methylcoumarin 4'-chlorobenzenesulfonate]: the IC50 turned out to be 6.3 nM.
Consider `CCc1cc(=O)oc2cc(OS(=O)(=O)c3ccc(Cl)cc3)ccc12` [Example 31, 4-Ethyl-7-hydroxycoumarin 4'-chlorobenzenesulfonate], for which the IC50 worked out at 30 nM.
On the same count and under the same terms, then `CCc1cc(=O)oc2cc(OS(=O)(=O)c3ccccc3)ccc12` [Example 32, 4-Ethyl-7-hydroxycoumarin benzenesulfonate], with 120 nM; and `CCc1c(C)c2ccc(OS(=O)(=O)c3ccc(Cl)cc3)cc2oc1=O` [Example 34, 3-Ethyl-7-hydroxy-4-methylcoumarin 4'-chlorobenzenesulfonate], with 23 nM.
As to `CCCc1c(C)c2ccc(OS(=O)(=O)c3ccc(Cl)cc3)cc2oc1=O` [Example 37, 7-Hydroxy-4-methyl-3-propylcoumarin 4'-chlorobenzenesulfonate], the IC50 stood at 67 nM.
Still for that read-out and setting: then `Cc1cc(=O)oc2cc(OS(=O)(=O)c3ccc(Cl)cc3)ccc12` [Example 40, 7-Hydroxy-4-methylcoumarin 4'-chlorobenzenesulfonate], with 6.5 nM.
Still for that read-out and setting: the result for `CC(C)S(=O)(=O)Oc1ccc2ccc(=O)oc2c1` [Example 45, 7-Hydroxycoumarin isopropanesulfonate] reads 160 nM; that for `COC(=O)Cc1c(C)c2ccc(OS(=O)(=O)c3ccc(Br)cc3)cc2oc1=O` [Example 48, 7-Hydroxy-3-carbomethoxymethyl-4-methylcoumarin 4'-bromobenzenesulfonate], 22 nM.
Regarding `CCOC(=O)c1cc2ccc(OS(=O)(=O)c3ccc(Cl)cc3)cc2oc1=O` [Example 50, 7-Hydroxy-3-carboethoxycoumarin 4'-chlorobenzenesulfonate], the concentration for half-maximal inhibition (IC50) amounted to 540 nM.
With `CCOC(=O)c1cc2ccc(OS(=O)(=O)c3ccc([N+](=O)[O-])cc3)cc2oc1=O` [Example 51, 7-Hydroxy-3-carboethoxycoumarin 4'-nitrobenzenesulfonate], the IC50 came to 540 nM.
Consider `Cc1c(Cl)c(=O)oc2cc(OS(=O)(=O)C(C)C)ccc12` [Example 60, 7-Hydroxy-3-chloro-4-methylcoumarin isopropanesulfonate], for which the IC50 is 14 nM.
